Test results taken from US8802623B2 (priority 2009, dated 2014).

Columns and labels:
[1] = system: IAV A/PR/8/34; set-up: species or system C57BL/6 mice; conditions: mouse, in vivo
[2] = system: IAV A/PR/8/34; set-up: species or system C57BL/6 mice; conditions: mouse, in vivo; remark: listed apart in the source
[3] = mouse, in vivo
[4] = system: A549 cells infected with IAV A/PR/8/34; type: cell-based, human
[5] = system: IAV A/PR/8/34; type: cell-based, IAV A/PR/8/34 (H1N1)

Row | Molecule | protection from IAV induced death, different concentrations [1] | protection from IAV-induced death at different pfu/mice [1] | infectious virus load in lungs [2] | side effect in uninfected mice (survival, weight) [3] | IL-6 release [4] | IL-8 release [4] | RANTES release [4] | IAV-induced death in mice [1] | virus production in IAV-infected A549 cells [5] | infectious virus loads in lungs [2]
1 | CC(C)c1ccc(Cn2ccc3c4c(N)nc(NC5CC5)nc4ccc32)cc1 [SCH79797] | protected mice from IAV induced death in a dose-dependent manner | protected mice from IAV-induced death | significantly decreased infectious virus load |  |  |  |  |  |  | 
2 | H-Thr-Phe-Leu-Leu-Arg-NH2 [TFLLR-NH2] |  |  |  | not sensitive | significantly increased | significantly increased | significantly increased | increased IAV-induced death | produced more viruses | significantly increased infectious virus loads
